Experimental data reported in US5164296A, “Assay methods involving ouabain” (priority 1990, dated 1992).

Tests used:
[1] = test system: left atria from guinea pigs; assay: Inotropic properties in left atria from guinea pigs; parameters: species or system guinea pig
Protocol: Atria were incubated at 37° C. in phosphate buffered saline comprising 130 mM NaCl, 5.4 mM KCl, 1.8 mM MgCl2, 0.4 mM NaH2 PO4, 19 mM NaHCO3 and 5.4 g of glucose (pH 7.3-7.4), and gassed with 95% O2 /5% CO2. Tissues were stimulated at 1 Hz with twice threshold square pulses (0.8 to 1.0 V) of 0.7 to 1.2 msec duration. Resting tension was optimized for maximum isometric force generation. Control records were obtained once the phasic force was stabilized. […] For comparison, 200 nM plant ouabain evoked an inotropic response of 311±41% (N=4 experiments) which returned to normal with a half-time of approximately 5 min upon washout.

[2] = test system: (Na^+ +K^+)ATPase; settings: type II-phosphorylating conditions; cited from earlier work
[3] = molecular target: T1, (Na^+ +K^+)ATPase (Canis lupus familiaris, UniProt P50997); assay: Competition for ^3 H-ouabain binding to purified (Na^+ +K^+)ATPase; parameters: species or system dog; settings: competition for ^3 H-ouabain binding
T1 construct: (Na^+ +K^+)ATPase was purified from the outer medulla of dog kidney; from tissue; host or cells: dog kidney outer medulla, purified membrane enzyme
Protocol: (§1) More specifically, (Na^+ +K^+)ATPase was purified from the outer medulla of dog kidney using the angle rotor procedure (Jorgensen, P.L., Biochim. Biophys. Acta, 356:36-52 (1974)) and stored frozen at -60° C. at 1.0 mg/ml in 25 mM imidazole-HCl (pH 7.5) and 1.0 mM EDTA, in small aliquots. (Na^+ +K^+)ATPase activity was determined at 37° C. from rate measurements in 1.0 ml of coupled optical assay mixture comprising 20 mM KCl, 100 mM NaCl, 4.5 mM MgSO4, 5.0 mM EGTA, 3.0 mM ATP-Na2, 1.2 mM phosphoenol-pyruvate-tricyclohexylammonium, 0.3 mM NADH, 100 mM TES-Tris (ph 7.4), 5.0 units of lactate dehydrogenase, and 5.0 units of pyruvate kinase (Hamlyn, J.M. et al, Nature, 300:650-652 (1982)). (Na^+ +K^+)ATPase activity was 99% ouabain-inhibitable with activities of 10-18 μmol/min/mg of membrane protein. Maximally effective concentrations of digitalis-like activity had no effect on the enzymatic components of the coupled optical assay as determined by inspection of rates in response to addition of 20-50 μM ADP. The maximal capacity of the coupled optical assay was at least 500-2000 fold greater than the typical maximal hydrolytic rate of the (Na^+ +K^+)ATPase and was not rate limiting under any assay condition described herein.
Competition for ^3 H-ouabain (Amersham Corp. or DuPont-New England Nuclear) binding was carried out in 670 μl of binding buffer comprising, in final concentrations, 10 mM TES-Tris (pH 7.4), 0.5 mM EDTA, 5.0 mM MgCl2 and 5.0 mM Na2 HPO4 (hereinafter "binding buffer") and 50 nM ouabain containing ^3 H-ouabain tracer, and including the unknown sample. Binding was initiated by addition of 0.1-2 μg of purified (Na^+ +K^+)ATPase and the reaction performed for 2 hr at 37° C. […] Trapped ^3 H-ouabain was determined by scintillation counting, following 12 hr of soaking the filters in 4.0 ml of Beckman Ready Protein ™ scintillation cocktail (Beckman, Palo Alto, Calif.). […] All binding data were corrected for quench, and specific binding was expressed as pmol/mg of enzyme protein. […]

[4] = molecular target: T1, (Na^+ +K^+)ATPase; assay: Inhibition of (Na^+ +K^+)ATPase activity (coupled optical assay); format: biochemical, dog; settings: inhibition of (Na^+ +K^+)ATPase activity
Protocol: as §1
The inhibition of (Na^+ +K^+)ATPase was carried out as described above.

[5] = Protein binding in plasma; format: in vitro ADME; settings: EDLF described in the present invention
[6] = test system: catechol-o-methyl transferase (COMT); assay: Substrate for catechol-o-methyl transferase (COMT); format: in vitro ADME; settings: EDLF described in the present invention
[7] = test system: antibodies having binding specificity for ouabain; assay: Competition ELISA for binding to antibodies having binding specificity for ouabain; parameters: species or system rabbit
Protocol: The competition for binding to antibodies having binding specificity for ouabain was carried out by employing polyclonal antisera having titers >10,000 generated against ouabain in rabbits as described in Example 2 below. […] A competition ELISA was carried out as follows:
Microtiter plates were coated with 50 μl of a 1.0 ng/ml solution of Conjugate 4. Following washes with wash buffer comprising 0.9% (w/v) NaCl and 0.5% (v/v) Tween 20 (hereinafter "wash buffer"), residual sites were blocked with buffer comprising 136 mM NaCl, 1.46 mM KH2 PO4, 0.8 mM Na2 HPO4, 0.028 mM thimerosal, 0.5% (v/v) Tween 20, and 1.0% (w/v) BSA (pH 7.4). Known amounts of free ouabain or unknown samples were introduced followed by the addition of ouabain antisera at an overall dilution of 1:2×10^6. Incubations at 23° C. for 1 hr were terminated by repeated washing with wash buffer. Subsequently, a second incubation at […] for 1hr was performed with a 1:10^3 dilution of goat anti-rabbit IgG-peroxidase conjugate (Boehringer Mannheim, Indianapolis, Ind.). Following extensive washing with wash buffer, equal parts of 3, 3', 5, 5'-tetramethylbenzindine and hydrogen peroxide (Kirkegaard and Perry, Gaitheresburg, Md.) were added and incubated at 23° C. for 15 min. Color development was terminated by addition of 1.0 M H3 PO4 and read at 450 nm with a plate reader. […] Each data point is the mean ± S.E.M. All lines were fitted by nonlinear regression to a sigmoidal function.

[8] = test system: digoxin antibodies; settings: cited from earlier work

CC1OC(OC2CC(O)C3(CO)C4C(O)CC5(C)C(C6=CC(=O)OC6)CCC5(O)C4CCC3(O)C2)C(O)C(O)C1O (centres unmarked) [human ouabain]
time to plateau of increase in peak force ([1]; 85 nM): 34 min
activation at 0.17 µM ([1]; Cavia porcellus, read-out: developed force above the control): 294 ± 28%
apparent half-time for washout of the inotropic response ([1]; upon washout): approximately 5 min
affinity higher than that of ouabain [2]: 12-25 fold
Hill coefficient [3]: -0.97
Kd ([3]; read-out: calculated apparent Kd value, 50 nM ouabain, 2 hr at 37° C.): 7.7 nM
Hill coefficient [4]: -1.28
Kd ([4]; read-out: calculated apparent Kd value, 37° C.): 13.9 nM
protein binding in plasma [5]: not highly protein bound in plasma
substrate for COMT [6]: not a substrate for COMT
Hill coefficient ([7]; competition ELISA): -0.65
Kd ([7]; competition ELISA, antisera 1:2×10^6, read-out: calculated apparent Kd value): 1.6 nM
cross-reaction with antibodies having binding specificity for ouabain ([7]; within experimental error): 100%
cross-reaction with digoxin antibodies [8]: does not cross-react
